According to US20100215759A1 (priority 2009, published 2010):
Read-outs that look alike come from different tables or passages of the source.

How the values were obtained:
CB1 receptors = target: T1, CB1 receptors (Mus musculus, UniProt P47746); test: biochemical; assay type: binding
T1 construct: the complete brain (excluding the cerebellum) and the spleen were quickly dissected and kept in ice; from tissue; host or cells: mouse brain (excluding cerebellum), membrane preparation
Protocol: (§1) The affinity of the synthesized compounds towards the CB1 and CB2 cannabinoidergic receptors was evaluated in vitro by radioreceptor binding studies using the method reported hereinunder.
(§2) The technique of the receptor binding allows to establish if, and with which affinity and specificity, a specific compound binds to a particular receptor. To evaluate the affinity of a specific compound to a particular receptor it is necessary to challenge in a particular tissue preparation wherein those specific receptors are present the compound to be tested with a radioactive labelled compound whose affinity for the same receptors is known. […] The amount of radioactivity present in the receptor-compound complex allows furthermore to estimate with great accuracy the amount of compound bound to the receptor. By said method it is therefore possible to establish quickly the affinity of a new compound towards a specific receptor and thus to determine its pharmacological activity. With the same experimental protocol it is possible to evaluate the affinity of the compound towards other receptors and thus establish its specificity degree toward said other receptors.
(§3) The food and water were ad libitum.
(§4) The procedure adopted, based on the use of the compound [^3H]-CP-55,940 (New England Nuclear, Boston, Mass., USA), requires the use of the mouse brain as biological tissue for the evaluation of the affinity towards the CB1 receptors and of the mouse spleen for the affinity assay for the CB2 receptors.
(§5) The animals were sacrificed by cervical dislocation and the complete brain (excluding the cerebellum) and the spleen were quickly dissected and kept in ice.
(§6) The tissue was homogenized in 15 volumes (weight/volume) of TME buffer (50 Mm Tris, 1 mM EDTA and 3 mM MgCl2, pH 7.4) by an Ultra-Turrax and subsequently centrifuged for 10 minutes at 1086×g in a centrifuge refrigerated at 4° C. The recovered supernatant was centrifuged at 45,000×g for 30 minutes at 4° C. by using a Beckman SW41 rotor and the obtained pellet was resuspended in 50 volumes of TME.
(§7) The thus obtained membranes (50-80 μg of proteins) were incubated in the presence of 1 nM of [^3H]-CP55.940 for 1 hour at 30° C. in a final volume of 0.5 ml of TME buffer containing 5 mg/ml of bovine serum albumin (BSA). The non specific binding was measured in the presence of CP55.940 at a 1 μM concentration.
(§8) All the experiments were carried out in polypropylene test tubes pretreated with Sigma-Cote (Sigma Chemical Co. Ltd., Poole, UK) for reducing non specific binding.
(§9) In order to determine the competitive inhibition binding curves, eight different concentrations of each compound were used.
(§10) Incubation was stopped by addition of TME buffer (at 4° C.) containing 5 mg/ml of BSA, and subsequent filtration under vacuum by Whatman GFC filters pretreated with 0.5% of polyethylamine (PEI) and by using a filtering device (Brandell, Gaithersburg, Md., USA). The filters were washed 3 times with […] of Tris HCl buffer (pH 7.4, 4° C.) containing 1 mg/ml of BSA and separately placed in plastic vials containing 4 ml of scintillating liquid (Ultima Gold MV, Packard).
(§11) The radioactivity present in the filters was determined by a scintillator spectrophotometer (Tricarb® 2100, Packard, Meridien, USA).
(§12) Protein determination was carried out by the Bradford method by using the protocol and the reactants supplied by Bio-Rad (Milano, Italy).

CB2 receptors = target: T2, CB2 receptors (Mus musculus, UniProt P47936); test: biochemical; assay type: binding
T2 construct: the complete brain (excluding the cerebellum) and the spleen were quickly dissected and kept in ice; from tissue; host or cells: mouse spleen, membrane preparation
Protocol: as §1, §2, §3, §4, §5, §6, §7, §8, §9, §10, §11, §12

mice = test: Hypothermia test in vivo (rectal temperature after i.p. administration); conditions: for Body Temperature: 40 mg/kg i.p.
Source text: It is known that the compounds having a cannabomimetic activity show in vivo the following effects: hypoactivity, hypothermia, analgesia and catalepsy (B. R. Martin et al., Pharmacol. Biochem. Behav.; 1991, 40, 471-478; P. B. Smith et al.; J. Pharmacol. Exp. Ther.; 1994, 270, 219-227). In order to display thermoregulating activity, the compounds acting towards the cannabinoidergic receptors must be able to pass the haematoencephalic barrier since the central site of said temperature regulating receptors is positioned in the preoptical front core of the hypothalamus (S. M. Rawls et al.; J. Pharmacol. Exp. Ther.; 2002, 303, 395-402). After treatment with CB1 agonist compounds passing the haemato-encephalic barrier, the cannabimimetic activity is evidenced by a reduction of the body temperature. CB1 antagonist compounds that pass the haemato-encephalic barrier, have no influence on the body temperature and show an antagonist activity towards the reference CB1 agonists as WIN 55.212-2, thus hindering the hypothermia induced by the latter.
The tests have been carried out in the experimental animal (mice) according to the indications of M. Rinaldi-Carmona et al. in FEBS Letters; 1994, 350, 240-244. Rectal temperature in mice was determined by an electronic thermometer inserted at a 2 mm depth. The measurements were carried out on mice acclimatized for one hour. […]
The experiment was carried out with the compound of example 3.1. Said compound was dispersed in a carrier formed of a physiological solution added with Tween 80 (3 drops). The so prepared samples were used for treating the animals at a dose of the compound of 40 mg/kg of body weight. The blank was the carrier.
Each test was repeated on ten animals: the results obtained are therefore the average of the determinations made on ten animals.

[1] = mouse brain membranes, 1 nM [3H]-CP55.940, read-out: CB1 (brain) Ki
[2] = mouse spleen membranes, 1 nM [3H]-CP55.940, read-out: CB2 (spleen) Ki

T2 sequence (P47936 whole entry): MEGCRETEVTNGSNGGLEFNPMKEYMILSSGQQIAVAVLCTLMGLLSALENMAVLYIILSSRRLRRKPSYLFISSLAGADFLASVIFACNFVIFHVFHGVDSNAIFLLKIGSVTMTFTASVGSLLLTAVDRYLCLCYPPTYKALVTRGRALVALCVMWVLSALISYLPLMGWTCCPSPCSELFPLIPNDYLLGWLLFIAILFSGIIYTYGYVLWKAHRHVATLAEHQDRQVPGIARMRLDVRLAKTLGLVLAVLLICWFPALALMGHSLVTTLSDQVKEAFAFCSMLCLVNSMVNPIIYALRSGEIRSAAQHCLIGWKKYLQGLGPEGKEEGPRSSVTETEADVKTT
T1 sequence (P47746 whole entry): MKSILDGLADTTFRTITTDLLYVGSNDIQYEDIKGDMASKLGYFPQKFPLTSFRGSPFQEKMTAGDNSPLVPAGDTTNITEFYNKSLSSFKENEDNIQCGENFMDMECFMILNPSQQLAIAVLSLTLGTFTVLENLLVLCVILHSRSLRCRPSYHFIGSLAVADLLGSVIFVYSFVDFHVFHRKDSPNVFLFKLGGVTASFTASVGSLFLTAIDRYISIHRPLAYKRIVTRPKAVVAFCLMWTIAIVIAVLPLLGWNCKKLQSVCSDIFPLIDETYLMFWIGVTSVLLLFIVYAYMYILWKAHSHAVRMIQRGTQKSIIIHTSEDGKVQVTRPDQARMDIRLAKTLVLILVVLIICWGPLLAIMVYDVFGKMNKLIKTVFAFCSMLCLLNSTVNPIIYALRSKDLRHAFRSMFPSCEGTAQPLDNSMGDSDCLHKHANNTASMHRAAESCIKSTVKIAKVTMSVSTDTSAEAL

`CCOC(=O)c1nn(-c2ccc(S(N)(=O)=O)cc2)c2c1CCc1sccc1-2` [Compound (XA), 1-(4′-sulphonamidophenyl)-4,5-dihydro-1H-thieno[2,3-g]indazol-3-ethyl carboxylate] was tested, and the Ki (CB1 receptors; [1]) was over 5 µM and the Ki (CB2 receptors; [2]) was over 5 µM.
`NC(=O)c1nn(-c2ccc(S(N)(=O)=O)cc2)c2c1CCc1sccc1-2` [Compound (XB), 1-(4′-sulphonamidophenyl)-4,5-dihydro-1H-thieno[2,3-g]indazol-3-carboxamide] showed a Ki (CB1 receptors; [1]) of over 5 µM and a Ki (CB2 receptors; [2]) of over 5 µM.
With `Cc1ccc(Cn2nc(C(=O)NCC3CCC4CC3C4(C)C)c3c2-c2sc(C)cc2C3)cc1` (stereo not shown) [Example 3.1, N-myrtanyl-6-methyl-1-(4′-methylbenzyl)-1,4-dihydrothieno[3′,2′:4,5]cyclopenta[1,2-c]pyrazol-3-carboxamide] the Ki (CB1 receptors) was 0.0836 ± 0.0146 µM, the Ki (CB2 receptors) was 0.0483 ± 0.0026 µM and the “Reduction of body temperature versus the carrier” value (mice; 40 mg/Kg) was “significantly reduce the body temperature”. For the same compound, the “Body Temperature” value (mice; 0 minutes from administration) was 37.9 °C, the “Body Temperature” value (mice; 15 minutes from administration) was 36.1 °C and the “Body Temperature” value (mice; 30 minutes from administration) was 34.8 °C. The “Body Temperature” value (mice; 60 minutes from administration) was 35.0 °C, the “Body Temperature” value (mice; 90 minutes from administration) was 36.7 °C and the “Body Temperature” value (mice; 120 minutes from administration) was 37.2 °C.
